One data set deals with T1, FIV PR (Feline immunodeficiency virus, UniProt P16088, C122K/G43I/N93T).
T1 construct: made in house; host or cells: E. coli BL21(DE3)
Briefly: Inhibition of FIV PR (Ki, IC50). The class given is biochemical. Here is the method: The solution was mixed and incubated for 10 minutes at 37° C. and the reaction quenched by addition of 8M guanidine HCl solution containing 0.2 M sodium acetate at pH 4.2 (100 μL). The cleavage products and substrate were separated by reverse phase HPLC. Absorbance was measured at 215 nm, peak areas were determined and percent conversion to product was calculated using relative peak areas. […] IC50 was determined as the inhibitor concentration at 50% inhibition. […] ([S]=substrate concentration in nmol). The data used was generated similarly to that for Ki with the following modifications. The substrate concentrations used were 560, 448, 336, 224, 111 and 56 μM, in the absence of inhibitor.
Kinetic determinations for both HIV PR and FIV PRs were performed at 37° C. at pH 5.25 in duplicate using F-2000 fluorescence spectrophotometer (Hitachi).
For FIV PRs, the kinetic data were determined under the similar reaction conditions as for HIV PR.

A further data set has as its system wild type HIV PR. Briefly: Cell culture IC90, wild type. The class given is cell-based. The settings on record: Human immunodeficiency virus 1, read-out: IC90 against the wild type HIV PR.
In the next data set the test system is feline T-cells. Briefly: Toxicity to feline T-cells in culture. It counts as cell-based. Here is the method:
For FIV, the assays were performed in FIV-infected feline T-cells which were cultured in the presence of compound 1200 at different concentrations over the course of 1 month. Each data in FIG. 14 represents the amount of pelletable FIV reverse transcriptase in the culture supernatant. […] Furthermore, this inhibitor was not toxic to feline T-cells. After one month, the drug-treated cultures were split and replated with and without compound 1200.
The lymphocytic cell line 104-C1 (provided by C. Grant) was used as the target for infection. Cells were cultured in RPMI-1640 media supplemented with 10% FBS, 200 μM L-Glutamine, 1×MEM-Vitamins, 100 μM Sodium Pyruvate, 1×Non-Essential Amino Acids, 5.5×10−5M b-ME, 50 μg/ml Gentamicin, 50 U/ml human recombinant Interleukin-2 (provided by Hoffmann-LaRoche) and 7.5 μg/ml Concanavalin-A. For inhibitor assessment, 5×10^6 cells were infected with FIV-PPR (4×105 RT units) in 1 mL culture for 2 hr at 37° C. No virus and virus only controls were incubated in a similar manner. The cells were then washed with Hanks-buffered saline solution (HBSS) and resuspended in 10 ml of complete medium. […] The culture supernatants were monitored for the presence of pelletable reverse transcriptase activity at weekly intervals, as follows. […] The paper was then dried and counted on a scintillation counter.

The subject of another data set is 82F/84V mutant. Briefly: Cell culture IC90, 82F/84V mutant. The class given is cell-based, HIV. To be noted: Human immunodeficiency virus 1, read-out: IC90 against the 82F/84V mutant.
For a further data set, the system named is uninfected 174×CEM cells. Briefly: Effect on uninfected cells of the SIV assay. The class given is cell-based. The settings on record: 10, 1.0, 0.1 and 0.001 μg/ml. Here is the method: Cells were acutely infected with approximately 400 TCID50 units of SIVmac251 for 90 min at 37° C. The cells were collected by centrifugation, washed twice with medium to remove free virus, then plated in 0.45 ml medium in 48-well tissue culture plates, at 10^5 cells per well. Compound 1200, prepared as a 10 mg/ml stock in DMSO, was then added to final concentrations of 10, 1.0, 0.1, and 0.001 μg/ml final concentrations, in triplicate cultures. Triplicate control cultures received medium only.

Data set [1] deals with SIVmac251 in 174×CEM cells. Briefly: Ex vivo inhibitor analysis against SIV, p27 antigen ELISA. The class given is cell-based. Here is the method: The results from tissue culture assays against SIV (FIG. 14) and HIV (FIG. 14) were equally encouraging. […] The effectiveness of compound 1200 against HIV was measured by determining the percentage of viable cells remaining in culture over time in the presence and absence of drug (FIG. 14). In the control, HIV caused formation of multinucleated syncytia and 100% cell death by 9 days post infection. However, the cells cultured with 1 μg/ml (1.1 μM) or 5 μg/ml (5.5 μM) of inhibitor 1200 remained 100% viable after 1 month, identical to results obtained in the absence of virus infection. To test for virus in these cultures, supernatants were removed and added to 1×10^5 uninfected MT-2 cells after a 1:5 dilution with fresh CM. […] In contrast, when 2×10^5 infected MT-2 cells that had been treated with compound 1200 for two weeks were removed and replated in fresh medium with or without compound 1200 only MT-2 cells cultured in the absence of compound 1200 were dead within 4 days (data not shown). […] Cultures are being carried continuously in the presence of compound 12 to look for resistance development. Tests are also underway to determine the level of efficacy of the compound against a defined panel of drug-resistant HIVs. […]

A further data set concerns I84V mutant. Briefly: Cell culture IC90, I84V mutant. The class given is cell-based, HIV. To be noted: Human immunodeficiency virus 1, read-out: IC90 against the I84V mutant.

Molecules are shown by their SMILES. pKi: −log10 of the molar value.

At FIV PR, `CC(C)[C@H](NC(=O)[C@H](C)NC(=O)OCc1ccccc1)C(=O)N[C@@H](Cc1ccccc1)[C@@H](O)[C@H](O)[C@H](Cc1ccccc1)NC(=O)[C@@H](NC(=O)[C@H](C)NC(=O)OCc1ccccc1)C(C)C` [Compound 1b] showed a pKi of 7.39. Further, the IC90 with wild type HIV PR was 100 nM; in the data set with 82F/84V mutant, 900 nM; with I84V mutant, 400 nM. Besides, the toxicity to cells entry in the data set on feline T-cells is “not toxic”. Further, the “effects on uninfected cells” value in the data set on uninfected 174×CEM cells is listed as “no effects noted”. The “inhibition of SIV infection in tissue culture (in words)” value in data set [1] is “strongly inhibits”. Also, the “SIV virus expression, p27 antigen in culture supernatant” value in data set [1] (1 μg/ml) was “near background”.

The term pKi denotes the negative decadic logarithm of the Ki, by convention in mol/L. Read a high pKi as a low Ki.

(Values after patent publication US6803466B1, “HIV/FIV protease inhibitors having a small P3 residue” (The Scripps Research Institute, priority 1997, dated 2004).)
